From publication PMC9030254, “Target Hopping from Protein Kinases to PXR: Identification of Small-Molecule Protein Kinase Inhibitors as Selective Modulators of Pregnane X Receptor from TüKIC Library” (Cells, 2022)

Experiments:
Experiment in all cases: Kinase profiling
Format in all cases: biochemical
AuroraA = molecular target: T1, AuroraA (Homo sapiens, UniProt O14965)
T1 construct: purchased ProQinase (Freiburg, Germany)
T1 sequence (O14965 1-403): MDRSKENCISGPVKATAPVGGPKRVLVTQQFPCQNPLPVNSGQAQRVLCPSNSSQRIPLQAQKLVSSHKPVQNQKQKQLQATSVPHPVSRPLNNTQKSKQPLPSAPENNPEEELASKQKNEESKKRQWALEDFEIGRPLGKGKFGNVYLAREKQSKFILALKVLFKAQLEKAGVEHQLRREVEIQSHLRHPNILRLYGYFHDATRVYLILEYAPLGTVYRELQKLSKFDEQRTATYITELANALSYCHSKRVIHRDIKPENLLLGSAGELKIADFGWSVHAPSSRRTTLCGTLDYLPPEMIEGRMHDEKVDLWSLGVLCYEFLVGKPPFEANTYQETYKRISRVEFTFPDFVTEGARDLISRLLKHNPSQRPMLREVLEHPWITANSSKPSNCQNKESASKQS
Procedure: (§1) The analysis was performed by ProQinase (Freiburg, Germany).

BRSK2 = molecular target: T2, BRSK2 (Homo sapiens, UniProt Q8IWQ3)
T2 construct: purchased ProQinase (Freiburg, Germany)
T2 sequence (Q8IWQ3 1-736): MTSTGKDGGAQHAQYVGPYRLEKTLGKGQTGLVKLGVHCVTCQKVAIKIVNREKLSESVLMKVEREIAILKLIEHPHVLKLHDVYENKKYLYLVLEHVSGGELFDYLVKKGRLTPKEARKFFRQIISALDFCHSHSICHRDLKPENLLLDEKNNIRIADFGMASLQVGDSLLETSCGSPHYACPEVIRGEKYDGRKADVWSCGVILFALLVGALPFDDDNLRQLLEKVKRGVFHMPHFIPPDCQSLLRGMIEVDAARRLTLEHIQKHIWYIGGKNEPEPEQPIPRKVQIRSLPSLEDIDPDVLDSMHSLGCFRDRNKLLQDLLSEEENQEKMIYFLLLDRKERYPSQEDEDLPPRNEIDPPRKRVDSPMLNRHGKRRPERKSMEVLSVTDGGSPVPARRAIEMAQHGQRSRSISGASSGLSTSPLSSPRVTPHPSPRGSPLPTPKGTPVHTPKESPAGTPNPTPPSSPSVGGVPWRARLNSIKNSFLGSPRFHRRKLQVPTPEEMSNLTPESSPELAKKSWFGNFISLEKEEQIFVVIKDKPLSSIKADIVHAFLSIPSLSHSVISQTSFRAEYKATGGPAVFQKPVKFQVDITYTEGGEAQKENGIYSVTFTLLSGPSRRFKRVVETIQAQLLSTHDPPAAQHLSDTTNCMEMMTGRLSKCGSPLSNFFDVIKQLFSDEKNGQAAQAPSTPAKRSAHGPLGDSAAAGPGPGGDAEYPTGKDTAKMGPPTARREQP
Procedure: as §1

BTK = molecular target: T3, BTK (Homo sapiens, UniProt Q06187)
T3 construct: purchased ProQinase (Freiburg, Germany)
Procedure: as §1

MARK1 = molecular target: T4, MARK1 (Homo sapiens, UniProt Q9P0L2)
T4 construct: purchased ProQinase (Freiburg, Germany)
Procedure: as §1

MET = molecular target: T5, MET (Homo sapiens, UniProt P08581)
T5 construct: purchased ProQinase (Freiburg, Germany)
Procedure: as §1

PIM2 = molecular target: T6, PIM2 (Homo sapiens, UniProt Q9P1W9)
T6 construct: purchased ProQinase (Freiburg, Germany)
Procedure: as §1

PYK2 = molecular target: T7, PYK2 (Homo sapiens, UniProt Q14289)
T7 construct: purchased ProQinase (Freiburg, Germany)
Procedure: as §1

RPS6KA2 = molecular target: T8, RPS6KA2 (Homo sapiens, UniProt Q15349)
T8 construct: purchased ProQinase (Freiburg, Germany)
Procedure: as §1

STK17A = molecular target: T9, STK17A (Homo sapiens, UniProt Q9UEE5)
T9 construct: purchased ProQinase (Freiburg, Germany)
T9 sequence (Q9UEE5 1-414): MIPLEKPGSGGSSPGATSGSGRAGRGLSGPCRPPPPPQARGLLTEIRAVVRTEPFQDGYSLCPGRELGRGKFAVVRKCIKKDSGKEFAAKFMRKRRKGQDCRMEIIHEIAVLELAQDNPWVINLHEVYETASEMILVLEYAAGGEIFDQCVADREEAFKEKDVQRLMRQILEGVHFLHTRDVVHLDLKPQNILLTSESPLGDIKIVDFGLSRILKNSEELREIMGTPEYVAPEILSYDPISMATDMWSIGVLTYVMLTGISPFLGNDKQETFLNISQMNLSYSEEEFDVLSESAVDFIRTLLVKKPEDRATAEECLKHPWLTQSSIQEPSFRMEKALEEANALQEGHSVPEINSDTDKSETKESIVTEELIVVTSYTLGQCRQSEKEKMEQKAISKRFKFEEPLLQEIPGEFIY
Procedure: as §1

TGFBR1 = molecular target: T10, TGFBR1 (Homo sapiens, UniProt P36897)
T10 construct: purchased ProQinase (Freiburg, Germany)
T10 sequence (P36897 34-503): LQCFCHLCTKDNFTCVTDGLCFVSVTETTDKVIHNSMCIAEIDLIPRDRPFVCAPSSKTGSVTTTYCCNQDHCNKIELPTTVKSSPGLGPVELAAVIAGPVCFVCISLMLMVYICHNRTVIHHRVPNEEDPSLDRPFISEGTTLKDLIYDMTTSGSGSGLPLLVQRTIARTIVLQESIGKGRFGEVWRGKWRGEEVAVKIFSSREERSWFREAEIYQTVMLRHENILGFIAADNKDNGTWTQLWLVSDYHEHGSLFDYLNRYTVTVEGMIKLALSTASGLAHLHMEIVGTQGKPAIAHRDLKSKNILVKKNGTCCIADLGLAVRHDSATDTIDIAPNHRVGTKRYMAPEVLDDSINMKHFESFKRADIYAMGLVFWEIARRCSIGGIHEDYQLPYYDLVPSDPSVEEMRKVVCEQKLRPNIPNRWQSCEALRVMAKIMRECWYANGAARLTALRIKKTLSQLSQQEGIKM
Procedure: as §1

TSF1 = molecular target: T11, TSF1 (Homo sapiens, UniProt O75716)
T11 construct: purchased ProQinase (Freiburg, Germany)
Procedure: as §1

WNK2 = molecular target: T12, WNK2 (Homo sapiens, UniProt Q9Y3S1)
T12 construct: purchased ProQinase (Freiburg, Germany)
Procedure: as §1

p38beta = molecular target: T13, p38beta (Homo sapiens, UniProt Q15759); conditions: for inhibition at 10 µM: read-out: inhibition of p38β
T13 construct: purchased ProQinase (Freiburg, Germany)
Procedure: as §1

T3 sequence (Q06187 whole entry): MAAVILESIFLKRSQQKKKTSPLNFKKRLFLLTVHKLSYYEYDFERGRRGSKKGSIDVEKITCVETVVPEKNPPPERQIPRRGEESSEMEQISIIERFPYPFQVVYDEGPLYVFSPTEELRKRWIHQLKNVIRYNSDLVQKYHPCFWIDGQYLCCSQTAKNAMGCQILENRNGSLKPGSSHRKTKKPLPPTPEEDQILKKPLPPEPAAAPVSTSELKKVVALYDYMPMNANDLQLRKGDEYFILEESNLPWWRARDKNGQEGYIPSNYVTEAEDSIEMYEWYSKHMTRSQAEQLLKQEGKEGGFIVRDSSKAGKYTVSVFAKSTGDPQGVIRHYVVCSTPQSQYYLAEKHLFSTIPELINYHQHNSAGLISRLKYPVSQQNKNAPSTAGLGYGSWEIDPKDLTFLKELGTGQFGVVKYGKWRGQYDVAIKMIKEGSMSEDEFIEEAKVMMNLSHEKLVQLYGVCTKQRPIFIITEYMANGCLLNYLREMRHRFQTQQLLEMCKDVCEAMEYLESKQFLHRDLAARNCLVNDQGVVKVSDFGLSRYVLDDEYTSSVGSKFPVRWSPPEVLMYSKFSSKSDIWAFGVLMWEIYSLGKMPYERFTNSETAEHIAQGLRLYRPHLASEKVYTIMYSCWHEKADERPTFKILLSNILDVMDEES
T6 sequence (Q9P1W9 whole entry): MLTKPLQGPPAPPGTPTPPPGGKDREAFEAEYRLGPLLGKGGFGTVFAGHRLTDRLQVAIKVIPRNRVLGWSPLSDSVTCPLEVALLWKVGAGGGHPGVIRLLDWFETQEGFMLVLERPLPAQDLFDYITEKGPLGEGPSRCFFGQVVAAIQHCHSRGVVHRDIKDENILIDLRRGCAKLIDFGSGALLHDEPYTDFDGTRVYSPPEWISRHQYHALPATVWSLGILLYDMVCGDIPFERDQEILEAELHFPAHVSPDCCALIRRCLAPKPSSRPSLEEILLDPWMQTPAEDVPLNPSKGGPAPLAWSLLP
T11 sequence (O75716 whole entry): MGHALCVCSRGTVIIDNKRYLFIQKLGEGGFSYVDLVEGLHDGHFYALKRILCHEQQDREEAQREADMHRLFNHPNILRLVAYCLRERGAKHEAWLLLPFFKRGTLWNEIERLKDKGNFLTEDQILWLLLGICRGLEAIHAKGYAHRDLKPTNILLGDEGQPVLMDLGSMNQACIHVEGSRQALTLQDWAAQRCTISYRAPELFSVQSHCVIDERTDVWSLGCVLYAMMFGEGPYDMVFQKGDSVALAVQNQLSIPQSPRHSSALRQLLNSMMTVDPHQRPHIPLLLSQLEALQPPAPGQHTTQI
T12 sequence (Q9Y3S1 whole entry): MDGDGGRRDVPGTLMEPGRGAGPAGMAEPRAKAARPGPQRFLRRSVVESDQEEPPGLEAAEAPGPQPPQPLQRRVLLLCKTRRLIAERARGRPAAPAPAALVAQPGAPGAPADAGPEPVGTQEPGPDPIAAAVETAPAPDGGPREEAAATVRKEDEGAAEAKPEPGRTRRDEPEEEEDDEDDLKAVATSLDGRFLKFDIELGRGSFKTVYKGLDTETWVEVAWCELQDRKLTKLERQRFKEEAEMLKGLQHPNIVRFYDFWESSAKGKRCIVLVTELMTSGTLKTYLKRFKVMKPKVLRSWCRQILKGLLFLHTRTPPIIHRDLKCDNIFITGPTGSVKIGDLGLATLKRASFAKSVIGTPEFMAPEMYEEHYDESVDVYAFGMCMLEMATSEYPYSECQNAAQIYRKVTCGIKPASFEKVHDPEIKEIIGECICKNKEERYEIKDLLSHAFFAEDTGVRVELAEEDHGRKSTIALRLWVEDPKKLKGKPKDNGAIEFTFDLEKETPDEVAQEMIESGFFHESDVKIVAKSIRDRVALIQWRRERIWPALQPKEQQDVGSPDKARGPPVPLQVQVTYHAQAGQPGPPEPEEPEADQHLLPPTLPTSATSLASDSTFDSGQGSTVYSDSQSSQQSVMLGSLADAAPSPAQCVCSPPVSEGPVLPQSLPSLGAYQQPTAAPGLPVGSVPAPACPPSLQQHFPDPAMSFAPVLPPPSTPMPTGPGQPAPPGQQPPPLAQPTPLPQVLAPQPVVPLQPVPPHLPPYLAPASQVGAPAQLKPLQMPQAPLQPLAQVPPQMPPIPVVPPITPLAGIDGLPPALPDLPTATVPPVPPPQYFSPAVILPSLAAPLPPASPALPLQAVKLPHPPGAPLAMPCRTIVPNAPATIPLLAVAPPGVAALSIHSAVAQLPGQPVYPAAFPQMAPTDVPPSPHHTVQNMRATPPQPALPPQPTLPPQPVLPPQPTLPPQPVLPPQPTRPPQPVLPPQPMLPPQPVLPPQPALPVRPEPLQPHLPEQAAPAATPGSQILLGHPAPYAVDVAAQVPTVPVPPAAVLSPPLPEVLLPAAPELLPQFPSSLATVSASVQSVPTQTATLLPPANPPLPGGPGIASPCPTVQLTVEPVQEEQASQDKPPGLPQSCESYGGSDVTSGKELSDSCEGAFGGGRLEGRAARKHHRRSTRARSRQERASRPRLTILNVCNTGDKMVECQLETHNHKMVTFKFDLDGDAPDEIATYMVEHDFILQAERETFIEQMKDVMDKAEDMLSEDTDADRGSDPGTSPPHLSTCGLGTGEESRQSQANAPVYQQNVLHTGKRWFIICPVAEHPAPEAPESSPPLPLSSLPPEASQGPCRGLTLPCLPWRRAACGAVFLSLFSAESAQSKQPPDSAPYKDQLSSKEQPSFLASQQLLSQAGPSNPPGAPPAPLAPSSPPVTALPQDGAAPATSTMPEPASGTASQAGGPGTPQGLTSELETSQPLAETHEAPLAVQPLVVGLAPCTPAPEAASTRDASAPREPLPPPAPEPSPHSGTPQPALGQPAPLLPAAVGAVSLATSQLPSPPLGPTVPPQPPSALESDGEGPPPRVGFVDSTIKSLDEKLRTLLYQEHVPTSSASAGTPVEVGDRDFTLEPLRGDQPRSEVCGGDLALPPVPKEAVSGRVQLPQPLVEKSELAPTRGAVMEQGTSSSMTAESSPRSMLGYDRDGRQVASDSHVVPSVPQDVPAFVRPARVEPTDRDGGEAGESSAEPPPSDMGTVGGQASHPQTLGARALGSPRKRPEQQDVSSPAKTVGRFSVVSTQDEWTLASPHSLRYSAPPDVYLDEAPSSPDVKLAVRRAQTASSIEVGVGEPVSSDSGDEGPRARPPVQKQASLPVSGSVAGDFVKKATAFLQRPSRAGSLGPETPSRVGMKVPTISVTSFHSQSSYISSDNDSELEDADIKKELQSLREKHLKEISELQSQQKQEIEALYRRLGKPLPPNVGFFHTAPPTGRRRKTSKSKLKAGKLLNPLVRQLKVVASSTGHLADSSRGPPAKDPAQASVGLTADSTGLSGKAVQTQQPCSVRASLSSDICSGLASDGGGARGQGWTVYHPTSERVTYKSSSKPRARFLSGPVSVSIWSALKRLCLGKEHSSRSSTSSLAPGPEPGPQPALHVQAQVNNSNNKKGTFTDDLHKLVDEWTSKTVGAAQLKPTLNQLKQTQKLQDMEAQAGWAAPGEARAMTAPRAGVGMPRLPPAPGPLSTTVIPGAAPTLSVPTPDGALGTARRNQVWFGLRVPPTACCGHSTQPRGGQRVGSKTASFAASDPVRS
T7 sequence (Q14289 whole entry): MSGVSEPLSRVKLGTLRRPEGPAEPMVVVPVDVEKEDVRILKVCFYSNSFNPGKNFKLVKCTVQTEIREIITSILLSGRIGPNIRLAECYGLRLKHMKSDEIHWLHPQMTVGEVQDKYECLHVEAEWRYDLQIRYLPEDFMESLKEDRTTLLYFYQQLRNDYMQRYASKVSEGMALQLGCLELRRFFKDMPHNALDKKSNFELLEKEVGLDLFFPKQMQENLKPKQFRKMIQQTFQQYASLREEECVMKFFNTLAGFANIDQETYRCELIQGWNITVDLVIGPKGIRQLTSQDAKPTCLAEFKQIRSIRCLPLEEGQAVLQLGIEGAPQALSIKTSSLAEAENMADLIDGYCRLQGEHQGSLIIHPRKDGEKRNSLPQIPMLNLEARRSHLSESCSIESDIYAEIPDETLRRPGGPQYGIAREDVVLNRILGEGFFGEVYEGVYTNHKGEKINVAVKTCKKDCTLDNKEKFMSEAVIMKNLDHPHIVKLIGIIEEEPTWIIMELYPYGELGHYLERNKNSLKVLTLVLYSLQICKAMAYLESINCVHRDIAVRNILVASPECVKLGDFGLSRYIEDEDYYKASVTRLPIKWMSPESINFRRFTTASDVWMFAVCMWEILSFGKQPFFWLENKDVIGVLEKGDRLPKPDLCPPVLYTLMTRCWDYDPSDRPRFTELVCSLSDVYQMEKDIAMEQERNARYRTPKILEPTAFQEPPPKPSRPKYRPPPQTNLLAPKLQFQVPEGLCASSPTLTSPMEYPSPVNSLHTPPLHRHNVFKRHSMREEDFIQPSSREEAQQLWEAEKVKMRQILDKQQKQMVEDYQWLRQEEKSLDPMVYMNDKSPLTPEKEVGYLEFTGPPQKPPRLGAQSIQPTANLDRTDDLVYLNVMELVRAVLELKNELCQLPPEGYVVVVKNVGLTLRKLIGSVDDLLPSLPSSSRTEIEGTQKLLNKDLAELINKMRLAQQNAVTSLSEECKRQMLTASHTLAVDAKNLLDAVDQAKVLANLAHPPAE
T13 sequence (Q15759 whole entry): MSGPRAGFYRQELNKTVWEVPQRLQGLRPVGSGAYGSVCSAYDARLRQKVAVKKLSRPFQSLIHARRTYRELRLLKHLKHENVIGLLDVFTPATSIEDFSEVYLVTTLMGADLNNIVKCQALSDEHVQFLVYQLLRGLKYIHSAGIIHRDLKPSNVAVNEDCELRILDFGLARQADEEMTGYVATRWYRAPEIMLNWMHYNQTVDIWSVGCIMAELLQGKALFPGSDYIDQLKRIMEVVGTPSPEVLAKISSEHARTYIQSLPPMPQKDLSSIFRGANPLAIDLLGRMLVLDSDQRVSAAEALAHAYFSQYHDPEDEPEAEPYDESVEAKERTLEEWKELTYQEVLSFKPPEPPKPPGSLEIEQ

Row | Structure (SMILES) | Residual activity (AuroraA; 1.0E-05 M) | Residual activity (AuroraA; 1.0E-06 M) | Residual activity (BRSK2; 1.0E-05 M) | Residual activity (BRSK2; 1.0E-06 M) | Residual activity (BTK; 1.0E-05 M) | Residual activity (BTK; 1.0E-06 M) | Residual activity (MARK1; 1.0E-05 M) | Residual activity (MARK1; 1.0E-06 M) | Residual activity (MET; 1.0E-05 M) | Residual activity (MET; 1.0E-06 M) | Residual activity (PIM2; 1.0E-05 M) | Residual activity (PIM2; 1.0E-06 M) | Residual activity (PYK2; 1.0E-05 M) | Residual activity (PYK2; 1.0E-06 M) | Residual activity (RPS6KA2; 1.0E-05 M) | Residual activity (RPS6KA2; 1.0E-06 M) | Residual activity (STK17A; 1.0E-05 M) | Residual activity (STK17A; 1.0E-06 M) | Residual activity (TGFBR1; 1.0E-05 M) | Residual activity (TGFBR1; 1.0E-06 M) | other results
1 | O=C(Nc1ccc(F)c(Nc2ccc3c(c2)CCCCC3=O)c1)c1cccc(F)c1 [Compound 109] | 90 % of control | 93 % of control | 100 % of control | 109 % of control | 91 % of control | 99 % of control | 99 % of control | 87 % of control | 91 % of control | 95 % of control | 86 % of control | 100 % of control | 80 % of control | 87 % of control | 75 % of control | 95 % of control | 88 % of control | 105 % of control | 91 % of control | 88 % of control | Residual activity (TSF1; 1.0E-05 M): 94 % of control; Residual activity (TSF1; 1.0E-06 M): 97 % of control; Residual activity (WNK2; 1.0E-05 M): 96 % of control; Residual activity (WNK2; 1.0E-06 M): 90 % of control; inhibition at 10 µM (p38beta): ≥ 50%; Residual activity (p38beta; 1.0E-05 M): 2 % of control; Residual activity (p38beta; 1.0E-06 M): 3 % of control
2 | O=C(Cc1ccccc1)Nc1ccc(F)c(Nc2ccc3c(c2)CCCCC3=O)c1 [Compound 100] | 91 % of control | 96 % of control | 99 % of control | 113 % of control | 78 % of control | 99 % of control | 90 % of control | 91 % of control | 89 % of control | 101 % of control | 92 % of control | 109 % of control | 79 % of control | 108 % of control | 84 % of control | 95 % of control | 76 % of control | 111 % of control | 88 % of control | 95 % of control | Residual activity (TSF1; 1.0E-05 M): 88 % of control; Residual activity (TSF1; 1.0E-06 M): 107 % of control; Residual activity (WNK2; 1.0E-05 M): 100 % of control; Residual activity (WNK2; 1.0E-06 M): 95 % of control; inhibition at 10 µM (p38beta): ≥ 50%; Residual activity (p38beta; 1.0E-05 M): 50 % of control; Residual activity (p38beta; 1.0E-06 M): 71 % of control
